As usually defined, the pKa is the pH at which an ionisable group is half protonated.

For the first data set the following is noted: acidic group.
In turn, `C=C(C)/C=C(/C(=O)O)c1ccc([N+](=O)[O-])cc1` yielded a pKa of 4.4.
On the same count and under the same terms, for `O=C1CC(c2ccccc2)NC(=O)N1` (stereo not drawn) the value was 11.2; for `O=C(O)C(=O)C(c1ccccc1)c1ccccc1`, 2.78; for `Oc1ccc2[nH]ncc2c1`, 10.1.
On the same count and under the same terms, next, `C[n+]1c2ccccc2nc2c(O)cccc21`: 4.85; `CC(N)C(N)=O` (stereo not drawn): 8.02; `Oc1ccc2c(c1)ncc1ccccc12`: 8.79.
`CC(=O)N(C)c1nnc(S(N)(=O)=O)s1` showed a pKa of 7.4.
Same read-out and setting: for `[NH3+]CC#CC#CCCC(=O)O` the value was 4.05; for `CC(=O)c1ccc(Cl)cc1`, 18.1; for `C(CSCCc1nnn[nH]1)SCCc1nnn[n-]1`, 5.64.
On the same count and under the same terms, next, `CCc1cccc2ccc(O)cc12`: 9.54; `Nc1ccc(C(=O)O)cc1`: 4.84; `CN1CC[C@]23c4c5ccc(O)c4O[C@H]2[C@@H](O)C=C[C@H]3[C@H]1[C@H]5O`: 9.06.
Same read-out and setting: next, `C[N+](C)(C)CCCC(=O)O`: 4.02; `O=C(O)c1cccccc1=O`: 3.73; `CC(=O)C(C(C)=O)c1ccccc1`: 9.32.
Regarding `O=C1NC(=O)c2ccccc21`, the pKa was 9.91.
The compound `CC1(C)CC(=O)CC(=O)C1` returned a pKa of 5.21.
`CCN(CC)Cc1cc(OC)ccc1O`: the pKa was found to be 10.9.
Turning to `Cc1cc(C#N)cc(C)c1O`, the pKa stood at 8.27.
Same read-out and setting: next, `C/N=C(/SC)c1ccccc1`: 6.42; `O=C1O[C@@H]([C@H](O)[C@@H](O)[C@@H](O)CO)C([O-])=C1O`: 12; `Oc1ccccc1-c1nnn[nH]1`: 4.36.
Same read-out and setting: for `[NH3+]CCc1ccccc1O` the value was 9.19.
The same measure, in the same setting: for `Oc1[nH+]ccc2cccnc12` the value was 2.64; for `O=S(=O)(Nc1ccc(Br)cc1)c1ccccc1`, 7.78; for `[NH3+][C@@H](CCCCN1C(=O)C[C@H]([NH3+])C1=O)C(=O)O`, 2.5.
Compound `c1nnn[nH]1` displayed a pKa of 4.84.
`C[NH+]1C[C@H](C(=O)O)C[C@@]2(O)c3cccc4[nH]cc(c34)C[C@@H]12` had a pKa of 3.42.
Same read-out and setting: for `O=Cc1cccc(O)c1` the value was 8.86; for `O=CC1c2ccccc2C(=O)c2ccccc21`, 6.
Turning to `C[C@@H]1CCCC[C@@H]1C(=O)O`, the pKa came to 5.04.
Same read-out and setting: for `CCC/C=C(/C)C(=O)O` the value was 4.44; for `Cc1ccc(O)c(=O)cc1`, 7.32; for `c1cncc(-c2nc3ccccc3[nH]2)c1`, 11.2.
The same measure, in the same setting: next, `C[S+](C)CC(=O)c1ccc([N+](=O)[O-])cc1`: 6.7; `CC(C)(C)C(=O)NC(O)C(Cl)(Cl)Cl` (stereo not drawn): 14.7; `CCc1cc(Cl)c(OC)c(C(=O)NC[C@H]2CCC[NH+]2CC)c1O`: 6.91.
The same measure, in the same setting: for `O=c1cccccc1S` the value was 5.9; for `C=C(C)C1=C(O)CC(C)CC1` (stereo not drawn), 11.9.
As to `C1COCCOCc2n[nH]c(n2)COCCOCCO1`, the pKa amounted to 9.55.
Still for that read-out and setting: next, `Cc1ccc(C(C)C)cc1O`: 10.3.
On the same count and under the same terms, next, `CCCC(C(CC)CO)C(CC)C(=O)O` (stereo not drawn): 4.78; `FC(F)(F)c1ncnc2nc[nH]c12`: 7.35.
On the same count and under the same terms, next, `CNC(=S)OC(C)C`: 11.6; `O=C1COC(=O)C1`: 3.76.
`S=C(Nc1ccccc1)c1ccc(Cl)cc1` came in with a pKa of 10.8.
`Cc1cccc([P+](c2cccc(C)c2)(c2cccc(C)c2)C2c3ccccc3-c3ccccc32)c1` registered a pKa of 9.55.
Regarding `Oc1ccccc1-c1cc2ccccc2cc1O`, the pKa stood at 7.55.
For the compound `O=C(O)CCc1ccsc1`, the pKa stood at 4.45.
On the same count and under the same terms, for `Nc1nc2[nH]cnc2c(O)[nH+]1` the value was 3.
Still for that read-out and setting: for `Cc1cc(C)c(O)c(C(C)C)c1` the value was 11.2; for `O=S(Cc1ccccc1)c1ncc[nH]1` (stereo not drawn), 9.8.
Compound `Cc1cc(O)ccc1C(C)C` yielded a pKa of 10.3.
Still for that read-out and setting: for `CC[C@]1(c2ccccc2)NC(=O)NC1=O` the value was 8.5; for `[NH3+]C(Cc1c[nH]c(=S)[nH]1)C(=O)O` (stereo not drawn), 1.84.
Regarding `CN(C)c1nc(/N=N/O)nn1C`, the pKa was 5.94.
With `O=[N+]([O-])c1ccc(O)c(C[NH+]2CCCCC2)c1`, the pKa is 5.88.
Same read-out and setting: for `C[n+]1cc(O)cc2ccccc21` the value was 5.42; for `CCc1cc(C(C)C)ccc1O`, 10.8; for `O=C(O)[C@H]1C[C@@H]1Cl`, 4.12.
The same measure, in the same setting: for `O=C1CC(=O)CS(=O)(=O)C1` the value was 2.72; for `CCCc1c(C)[nH][n+](C)c1[O-]`, 10.5.

Still in this data set, the particulars now being: basic group.
`COc1cc(S(N)(=O)=O)cc(C(=O)N[C@@H]2C[C@H]3CC[C@@H](C2)N3Cc2ccccc2)c1OC`: the pKa stood at 8.87.
Consider `CCCCCCCCCCN(CCO)CC(O)CC` (stereo not drawn), for which the pKa stood at 7.2.
Same read-out and setting: next, `CCCn1cnc2ccccc21`: 5.46.
The same measure, in the same setting: for `N=C(SCc1ccccc1)c1ccccc1` the value was 4.43; for `Cc1ccn(C)c2nc3ccccc3c1-2`, 8.35; for `CCCCCn1ccnc1`, 7.12.
Compound `Oc1ccc2c(c1)ncc1ccccc12` had a pKa of 4.82.
`SCCNCCc1ccccc1` gave a pKa of 8.11.
The same measure, in the same setting: for `Cc1ccc(C2=NCCC2)cc1` the value was 6.41; for `NC(CO)CO`, 8.63.
On the same count and under the same terms, for `CCOc1ccc(N)cc1` the value was 5.25; for `C(=N\c1ccccc1)/c1ccccc1`, 4.55.
Still for that read-out and setting: next, `CC(=O)NNC1CCN(C)CC1`: 8.7; `Nc1ccc(C(=O)O)cc1`: 2.41; `NCCC(=O)N[C@@H](Cc1cnc[nH]1)C(=O)[O-]`: 9.35.
The compound `CN1CC[C@]23c4c5ccc(O)c4O[C@H]2[C@@H](O)C=C[C@H]3[C@H]1[C@H]5O` gave a pKa of 7.13.
The compound `[S-]c1cccc2cccnc12` had a pKa of 8.29.
On the same count and under the same terms, next, `Cc1cc([O-])ncn1`: 9; `O=C([O-])c1c2ccccc2nc2ccccc12`: 5; `[O-]c1ccc(F)cc1CN1CCCCC1`: 11.3.
Compound `CCN(CC)Cc1cc(OC)ccc1O` displayed a pKa of 8.62.
Same read-out and setting: for `NCCC(=O)NC(Cc1c[nH]cn1)C(=O)[O-]` (stereo not drawn) the value was 9.48; for `CC(C)Nc1ncnc2c1cnn2C`, 4.22.
The same measure, in the same setting: next, `Nc1nnnn1-c1ccccc1`: 1.12.
The same measure, in the same setting: next, `N#CC1CN2CCC1CC2` (stereo not drawn): 7.85.
In turn, `Cc1cc([O-])[n+](C)c([O-])n1` displayed a pKa of 10.1.
The same measure, in the same setting: next, `CCCCCN(CCO)CC(O)CC` (stereo not drawn): 9.1; `CCN(CC)Cc1cc([N+](=O)[O-])c2ccccc2c1[O-]`: 11.
The same measure, in the same setting: for `CC(C)CN(CC(C)O)CC(C)O` (stereo not drawn) the value was 8.8; for `Cc1ccc(C)nn1`, 3.99; for `CN(C)c1ccc(N(C)C)cc1`, 6.37.
On the same count and under the same terms, for `CC1=NCCCCN1` the value was 12.7; for `CCCCNCCNCCCC`, 10.2.
Compound `O=Cc1cccc(C=O)n1` displayed a pKa of 1.92.
Take `Cc1cnc(C)c(C)[nH+]1`: the pKa was -3.6.
Still for that read-out and setting: for `C[NH+]1CCCC1c1cncc2[nH]c3ccccc3c12` (stereo not drawn) the value was 5.17; for `Cc1cc(C)c2ccc3cccnc3c2n1`, 5.96; for `CC1CCN(C)C(C)(C)C1` (stereo not drawn), 10.2.
On the same count and under the same terms, next, `Nc1ccc(Cl)cc1[N+](=O)[O-]`: -0.88.
Still for that read-out and setting: for `c1cncc(-c2nc3ccccc3[nH]2)c1` the value was 4.53; for `CN[C@@H]1C[C@@H]1[NH2+]C`, 3.56; for `c1ccc([C@@H]2CN3CCC[C@@H]3c3ccccc32)cc1`, 9.12.
The compound `C=C[C@]1(O)CN2CC[C@H]1C[C@@H]2[C@@H](O)c1ccnc2ccc(OC)cc12` displayed a pKa of 7.24.
Same read-out and setting: for `CCC(C)(C)Nc1ccccc1` the value was 6.55; for `Nc1nc[nH+]c(N)c1N`, 1.47; for `Nc1cccc(I)c1`, 3.59.
Still for that read-out and setting: next, `Cc1ccccc1NC1CCCC1`: 5.07; `CCC[NH2+]CCN`: 7.54; `C1COCCOCc2n[nH]c(n2)COCCOCCO1`: 2.36.
The same measure, in the same setting: next, `CC[C@H]1CN2CCc3cc(OC)c(OC)cc3[C@@H]2C[C@@H]1CC=O`: 8.11; `Nc1nc([O-])nc2nc[nH]c12`: 8.99.
Compound `CCCCCNCCCCC` had a pKa of 11.2.
`C=CCN(CC=C)CCCNC(=O)/C=N/[O-]` displayed a pKa of 9.34.
The compound `COCCNc1ccc(Cl)cc1` showed a pKa of 3.3.
On the same count and under the same terms, next, `Cc1cc([O-])[nH+]c([O-])n1`: 9.29; `Cc1ccc(N)cc1Cl`: 4.05; `COC(=O)c1ccc(N(C)C)cc1`: 2.61.
Still for that read-out and setting: for `CCOc1nccc([O-])n1` the value was 8.2.
On the same count and under the same terms, next, `C1CSCCN1`: 9.05.
`CN(C)c1cc[nH+]cc1`: the pKa was -7.78.
Still for that read-out and setting: next, `CCN(CC)CCN`: 9.93; `CCOc1ccc2nc3c(c(N4CCOCC4)c2c1)CCC3`: 7.11; `C1CCN2CCCCN2C1`: 6.79.
The same measure, in the same setting: for `CN(C1=NCCO1)c1ccccc1` the value was 8.51; for `Nc1ncnc2nn([C@@H]3C[C@@H](O)[C@H](CO)O3)nc12`, 3.1; for `Cc1cc(N)cc(C)c1[N+](=O)[O-]`, 2.56.
Still for that read-out and setting: next, `CCCCCCCP(=O)(CCCCCCC)CCCCCCC`: 4.65; `Cc1ccccc1/C(=N/CCCN(C)C)c1ccccc1`: 9.
Compound `CC(C)(C)c1cc(N)cc(C(C)(C)C)c1` yielded a pKa of 4.97.
On the same count and under the same terms, for `Nc1ccc(C(=O)c2ccc(N)cc2)cc1` the value was 2.92; for `C[C@H]([NH3+])C(=O)N[C@@H](Cc1c[nH]cn1)C(=O)[O-]`, 6.76; for `Cc1nn(C)c2c1C(c1ccccc1F)=NCC(=O)N2C`, 4.69.
Still for that read-out and setting: next, `CN(C)/C=N/c1ccccc1`: 9.
Still for that read-out and setting: next, `O=C(c1ccccc1)N1CCNCC1`: 7.79; `CCCN(C)N`: 7.35.
In turn, `CC1NOCc2ccccc21` (stereo not drawn) gave a pKa of 3.7.
The same measure, in the same setting: next, `[O-]c1nccc2cccnc12`: 12; `Cc1nc2c(n1C)C(=O)c1ncnc([O-])c1C2=O`: 6.15.
On the same count and under the same terms, next, `Cc1cnc2cccc([N+](=O)[O-])c2c1NCCC[NH+](C)C`: 6.01.

These data come from the pKa sets of Baltruschat and Czodrowski (2020).
